Measured values reported in patent publication US20100016232A1, “Treatment Of Inflammatory Diseases With Mammal Beta Defensins” (Novozymes A/S, priority 2008, published 2010).
Marks after values point to notes of the source that are not given here. Where no end group is shown, it is not given here.

Legend:
IL-23, human PBMC = assay: IL-23 in supernatants of human PBMC, ELISA; format: cell-based
Procedure: Peripheral blood was drawn from healthy volunteers (with approval from the relevant ethical committee in Denmark). Heparinized blood was diluted 1/1 v/v with RPMI and were subjected to Ficoll density centrifugation within 2 h of drawing. Plasma was collected from the top from individual donors and was kept on ice until it was used at 2% in the culture medium (autologous culture medium). Isolated PBMC were resuspended in autologous culture medium and seeded in 96-well culture plates with 255.000 cells per well in a total of 200 μl. […] The concentrations used for stimulation were optimized on 3 different donors in initial experiments, for LPS two different concentrations were used to be sure to be on a cytokine level that is possible to modulate. In some experiments PBMC were treated with Dexamethason and Indomethacin alone and together with LPS or LTA as a control on downregulation of inflammatory cytokines. The supernatants were collected after incubation at 37° C. for 24 hours, and stored at −80° C. until cytokine measurement. Viability was measured by Alamar Blue (Biosource, DALL 1100) in all experiments and in some cases also by MTS (Promega) according to manufacturer's instruction and was in some experiments also judged by counting of the cells by a Nucleocounter. […]
(§1) Cell culture supernatants were collected and stored at −80° C. Amounts of IL-23 was measured by standard sandwich ELISA using commercially available antibodies and standards according to the manufacturer's protocols (eBioscience).

[1] = tested on: collagen-induced arthritis (CIA) in the mouse; assay: Collagen-induced rheumatoid arthritis model, clinical arthritis score; format: in vivo; set-up: key: each paw scored 0-4 by ascending severity; total summed over paws; details: Group B, 1 mg/kg IP once daily
Procedure: All animals were subjected on Day 0 of the study (study commencement) to an intradermal injection into the tail of 0.1 ml Type II Collagen/CFA emulsion (200 μg collagen per mouse) under light Isoflurane anesthesia, using a plastic syringe. The location of injection was at an approximate caudal distance of about 1 cm from the base of the tail. A collagen challenge (200 μg/mouse) was presented to the animals by IP injection of collagen and PBS on Day 21.
Treatments were commenced on day 14 of the study and continued once daily throughout. All surviving mice were terminated on study day 42.
Mice were examined for signs of arthritogenic responses in peripheral joints on study day 0, 14, 21 and thereafter five times weekly until termination of the study. Arthritis reactions were reported for each paw according to a 0-4 scale in ascending order of severity as shown below:
In accordance with Home Office regulations mice with a total clinical score of equal to or greater than 12 were culled due to arthritis severity. The clinical score of these mice at termination was carried forward in the analysis for the remainder of the study in order that the data was not artificially skewed by the removal of high scoring mice.

[2] = tested on: IL-1β production from human peripheral blood mononuclear cells (PBMC); assay: IL-1β production from human PBMC, Cytometric Bead Array; format: cell-based; details: concentration of control compound not given, Table 18
Procedure: (§2) Peripheral blood was drawn from healthy volunteers (with approval from the relevant ethical committee in Denmark). Heparinized blood was diluted 1/1 v/v with RPMI and were subjected to Ficoll density centrifugation within 2 h of drawing. Plasma was collected from the top from individual donors and was kept on ice until it was used at 2% in the culture medium (autologous culture medium). Isolated PBMC were resuspended in autologous culture medium and seeded in 96-well culture plates with 255.000 cells per well in a total of 200 μl. […] The concentrations used for stimulation were optimized on 3 different donors in initial experiments, for LPS two different concentrations were used to be sure to be on a cytokine level that is possible to modulate. In some experiments PBMC were treated with Dexamethason and Indomethacin alone and together with LPS or LTA as a control on downregulation of inflammatory cytokines. The supernatants were collected after incubation at 37° C. for 24 hours, and stored at −80° C. until cytokine measurement. Viability was measured by Alamar Blue (Biosource, DALL 1100) in all experiments and in some cases also by MTS (Promega) according to manufacturer's instruction and was in some experiments also judged by counting of the cells by a Nucleocounter.
(§3) Cytokine production in supernatants was measured by flow cytometry with a human inflammation cytometric bead array (CBA) according to manufacturer's instructions (BD) on a FACSarray flow cytometer. The following cytokines were measured: IL-8, IL-1β, IL-10, TNF, IL-12 p70, IL-6. In some experiments, cytokines were measured by ELISA kits from R&D systems (IL-10, TNF-α, IL-1β) according to the manufacturer' instruction.

[3] = tested on: IL-10 production from human peripheral blood mononuclear cells (PBMC); assay: IL-10 production from human PBMC, Cytometric Bead Array; format: cell-based; details: concentration of control compound not given, Table 17
Procedure: as §2, §3

[4] = tested on: TNF production from mouse peripheral blood mononuclear cells (PBMC); assay: TNF production from mouse PBMC, Cytometric Bead Array; format: cell-based
Procedure: Mouse peripheral blood mononuclear cells were isolated from blood of ten NMRI mice. In short, heparinized blood was diluted 1/1 v/v with RPMI and subjected to Ficoll density centrifugation within 2 h of drawing. Plasma was collected from the top and discarded. Isolated PBMC were resuspended in culture medium (RPMI 1640 (Gibco, 42401) w/1% penicillin and streptomycin and 1% L-Glutamine) and seeded in 96-well culture plates with 115.500 cells per well in a total of 200 μl. […] The supernatants were collected after incubation at 37° C. for 24 hours, and stored at −80° C. until cytokine measurement.
Cytokine production in supernatants was measured by flow cytometry with a mouse inflammation cytometric bead array (CBA) according to manufacturer's instructions (BD) on a FACSarray flow cytometer.

[5] = tested on: IL-23, human CD14+ monocyte-derived dendritic cells; assay: IL-23 in supernatants of human CD14+ monocyte-derived dendritic cells, ELISA; format: cell-based; details: Dexamethasone 1 μM
Procedure: The DCs were prepared according to a modified protocol originally described by Romani et al. Briefly, peripheral blood mononuclear cells (PBMCs) were purified from buffy coats of healthy donors by centrifugation over a Ficoll-pague (GE-healthcare) gradient. Monocytes were isolated from PBMC by positive selection of CD14+ cells by magnetic beads (Dynal, Invitrogen) according to the manufacturer's instructions. The CD14+ monocytes were cultured in 6-well plates in RPMI/2% Human AB Serum recombinant human recombinant granulocyte-macrophage colony-stimulating factor (GM-CSF, 20 ng/ml) and IL-4 (20 ng/ml) (PeproTech) for 6 days, replenishing the medium/cytokines after 2 and 5 days.
as §1

[6] = tested on: TNF production from human peripheral blood mononuclear cells (PBMC); assay: TNF production from human PBMC, Cytometric Bead Array; format: cell-based
Procedure: as §2, §3

[7] = LPS 0.6 ng/ml, concentration of control compound not given, Table 16
[8] = LPS 20 ng/ml, concentration of control compound not given, Table 16
[9] = LPS 20 ng/ml, treatment 1 μg/ml, Table 21
[10] = Medium, treatment 1 μg/ml, Table 21
[11] = LPS 20 ng/ml, treatment 1 μg/ml

## C[C@@H]1C[C@H]2[C@@H]3CCC4=CC(=O)C=C[C@]4(C)[C@@]3(F)[C@@H](O)C[C@]2(C)[C@@]1(O)C(=O)CO [Dexamethasone, reference compound]
IL-23, human PBMC; Control (medium), treatment 3.5 ng/ml
  IL-23: 222 pg/mL
IL-23, human PBMC; LTA 5 μg/ml, treatment 3.5 ng/ml
  IL-23: 223 pg/mL
[1]; Study Day 0
  Mean Arthritic Score: 0.0
[1]; Study Day 14
  Mean Arthritic Score: 0.4
[1]; Study Day 21
  Mean Arthritic Score: 0.0
[1]; Study Day 22
  Mean Arthritic Score: 0.0
[1]; Study Day 23
  Mean Arthritic Score: 0.0
[1]; Study Day 26
  Mean Arthritic Score: 0.0*
[1]; Study Day 27
  Mean Arthritic Score: 0.0*
[1]; Study Day 28
  Mean Arthritic Score: 0.0*
[1]; Study Day 29
  Mean Arthritic Score: 0.0*
[1]; Study Day 30
  Mean Arthritic Score: 0.0*
[1]; Study Day 33
  Mean Arthritic Score: 0.0*
[1]; Study Day 34
  Mean Arthritic Score: 0.0*
[1]; Study Day 35
  Mean Arthritic Score: 0.0*
[1]; Study Day 36
  Mean Arthritic Score: 0.0*
[1]; Study Day 37
  Mean Arthritic Score: 0.0*
[1]; Study Day 40
  Mean Arthritic Score: 0.0*
[1]; Study Day 41
  Mean Arthritic Score: 0.0*
[2]; LPS 0.6 ng/ml
  IL-1β % of control: 14%
[2]; LPS 20 ng/ml
  IL-1β % of control: 44%
[3]; LPS 0.6 ng/ml
  IL-10 % of control: 70%
[3]; LPS 20 ng/ml
  IL-10 % of control: 67%
[4]; LPS 20 ng/ml, treatment 3.5 ng/ml
  TNF: 328 pg/mL
[5]; LPS (100 ng/ml) and IFN-γ (20 ng/ml)
  IL-23: 1147 pg/mL
[5]; Unstimulated
  IL-23: 424 pg/mL

## Infliximab: antibody which binds to TNF-alpha (Remicade), positive control [reference compound]
[6]; [7]
  TNF: 0 pg/mL
  TNF % of control: 0%
[6]; [8]
  TNF: 0 pg/mL
  TNF % of control: 0%
[6]; [9]
  TNF: 1 pg/mL
[6]; Medium, concentration of control compound not given, Table 16
  TNF: 0 pg/mL
[6]; [10]
  TNF: 0 pg/mL
IL-23, human PBMC; Control (medium), treatment 1 μg/ml
  IL-23: 227 pg/mL
IL-23, human PBMC; LPS 0.6 ng/ml, treatment 1 μg/ml
  IL-23: 356 pg/mL
IL-23, human PBMC; [11]
  IL-23: 373 pg/mL
IL-23, human PBMC; LTA 5 μg/ml, treatment 1 μg/ml
  IL-23: 349 pg/mL
[2]; LPS 0.6 ng/ml
  IL-1β: 636 pg/mL
  IL-1β % of control: 86%
[2]; LPS 20 ng/ml
  IL-1β: 2704 pg/mL
  IL-1β % of control: 106%
[2]; Medium
  IL-1β: 0 pg/mL
[3]; LPS 0.6 ng/ml
  IL-10: 46 pg/mL
  IL-10 % of control: 69%
[3]; LPS 20 ng/ml
  IL-10: 63 pg/mL
  IL-10 % of control: 56%
[3]; Medium
  IL-10: 0 pg/mL
[4]; [11]
  TNF: 2119 pg/mL
[4]; Medium, treatment 1 μg/ml
  TNF: 530 pg/mL

## mBD3: mouse beta defensin 3, SEQ ID NO:6; produced recombinantly by the hBD2 protocol (KINNPVSCLRKGGRCWNRCIGNTRQIGSCGVPFLKCCKRK; ends and bridges not checked; cysteine pairing not given here; listed as Mus musculus)
[6]; [9]
  TNF: 384 pg/mL
[6]; LPS 20 ng/ml, treatment 10 μg/ml, Table 21
  TNF: 51 pg/mL
[6]; LPS 20 ng/ml, treatment 100 μg/ml, Table 21
  TNF: 166 pg/mL
[6]; [10]
  TNF: 2 pg/mL
[6]; Medium, treatment 10 μg/ml, Table 21
  TNF: 2 pg/mL
[6]; Medium, treatment 100 μg/ml, Table 21
  TNF: 39 pg/mL
[4]; [11]
  TNF: 1600 pg/mL
[4]; LPS 20 ng/ml, treatment 10 μg/ml
  TNF: 297 pg/mL
[4]; LPS 20 ng/ml, treatment 100 μg/ml
  TNF: 195 pg/mL
[4]; Medium, treatment 1 μg/ml
  TNF: 347 pg/mL
[4]; Medium, treatment 10 μg/ml
  TNF: 180 pg/mL
[4]; Medium, treatment 100 μg/ml
  TNF: 182 pg/mL
